Columns and labels:
Assay type in all cases: binding, BALB/c mice
H4 1.3 = test: ELISA inhibition by singly modified Cs-derivatives, McAb H4 1.3; settings: group II; D-Lys^8 -Cs-BSA coating
Method: (§1) A second ELISA Procedure used conjugates of D-Lys^8 -Cs-BSA and Thr^2 -Cs-BSA for coating (Queeniaux et al., 1987b). An indirect detection system consisting of rabbit anti-mouse Ig followed by alkaline phosphates-conjugated goat anti-rabbit IgG was performed as previously described (Queenlaux et al., 1987b).
(§2) The binding of the 22 McAbs to these two Cs-BSA conjugates was also found to correlate well with their fine specificity patterns, as characterized with a set of 28-36 Cs derivatives. Typical ELISA curves showing McAb binding either to D-Lys^8 -Cs-BSA (panel A) or to Thr^2 -Ca-BSA (panel B) and inhibited by Cs or Cs derivatives are shown in FIGS. 8A-8B, D-Lys^8 -Cs-BSA was subsequently used for coating in the inhibition experiments, except for those McAbs binding selectively to Thr^2 -Cs-BSA (see Table 4 and FIGS. 7A-7C). An example of the binding of 26 Cs derivatives by McAbs belonging to each of the five specificity groups mentioned above is reported in Table 5. The results are expressed as the difference of IC50 (in log10) between the Cs derivatives and Cs. All Cs-derivatives used in this study were selected for having a conserved peptide ring conformation compared with CsA (as determined in NMR or X-ray diffraction).

H6 1.5 = test: ELISA inhibition by singly modified Cs-derivatives, McAb H6 1.5; settings: group III; D-Lys^8 -Cs-BSA coating
Method: as §1, §2

G7 1.1 = test: ELISA inhibition by singly modified Cs-derivatives, McAb G7 1.1; settings: group I; McAb binds selectively to Thr^2 -Cs-BSA coating
Method: as §1, §2

C4 2.2 = test: ELISA inhibition by singly modified Cs-derivatives, McAb C4 2.2; settings: group V; McAb binds selectively to Thr^2 -Cs-BSA coating
Method: as §1, §2

B11 1.4 = test: ELISA inhibition by singly modified Cs-derivatives, McAb B11 1.4; settings: group IV; D-Lys^8 -Cs-BSA coating
Method: as §1, §2

For `C/C=C/C[C@@H](C)[C@@H](O)[C@H]1C(=O)N[C@@H](CC)C(=O)N(C)CC(=O)N(C)[C@@H](CC(C)C)C(=O)N[C@@H](C(C)C)C(=O)N(C)[C@@H](CC(C)C)C(=O)N[C@@H](C)C(=O)N[C@H](C)C(=O)N(C)[C@@H](C)C(=O)N(C)[C@@H](CC(C)C)C(=O)N(C)[C@@H](C(C)C)C(=O)N1C` [MeLeu^9 MeAla], the “log10 difference in the concentrations of Cs-derivatives and unmodified Cs required to achieve 50% inhibition in ELISA, McAb H4 1.3” value (H4 1.3) was under 0.0 log10, the “log10 difference in the concentrations of Cs-derivatives and unmodified Cs required to achieve 50% inhibition in ELISA, McAb H6 1.5” value (H6 1.5) was 0.0 log10 and the “log10 difference in the concentrations of Cs-derivatives and unmodified Cs required to achieve 50% inhibition in ELISA, McAb G7 1.1” value (G7 1.1) was 1.4 log10. For the same compound, the “log10 difference in the concentrations of Cs-derivatives and unmodified Cs required to achieve 50% inhibition in ELISA, McAb C4 2.2” value (C4 2.2) was 1.9 log10 and the “log10 difference in the concentrations of Cs-derivatives and unmodified Cs required to achieve 50% inhibition in ELISA, McAb B11 1.4” value (B11 1.4) was 1.7 log10.
`C/C=C/C[C@@H](C)[C@@H](O)[C@H]1C(=O)N[C@@H](CC)C(=O)N(C)CC(=O)N(C)[C@@H](CC(C)C)C(=O)N[C@@H](C(C)C)C(=O)N(C)[C@@H](CC(C)C)C(=O)N[C@@H](C)C(=O)N[C@H](C)C(=O)N(C)[C@@H](CC(C)C)C(=O)N(C)[C@@H](C)C(=O)N(C)[C@@H](C(C)C)C(=O)N1C` [MeAla^10 MeAla] was tested, and the “log10 difference in the concentrations of Cs-derivatives and unmodified Cs required to achieve 50% inhibition in ELISA, McAb H4 1.3” value (H4 1.3) was 0.4 log10, the “log10 difference in the concentrations of Cs-derivatives and unmodified Cs required to achieve 50% inhibition in ELISA, McAb H6 1.5” value (H6 1.5) was 0.0 log10 and the “log10 difference in the concentrations of Cs-derivatives and unmodified Cs required to achieve 50% inhibition in ELISA, McAb G7 1.1” value (G7 1.1) was under 0.0 log10. The “log10 difference in the concentrations of Cs-derivatives and unmodified Cs required to achieve 50% inhibition in ELISA, McAb C4 2.2” value (C4 2.2) was 0.8 log10 and the “log10 difference in the concentrations of Cs-derivatives and unmodified Cs required to achieve 50% inhibition in ELISA, McAb B11 1.4” value (B11 1.4) was 0.1 log10.
For `C/C=C/C[C@@H](C)[C@@H](O)[C@H]1C(=O)N[C@@H](CC)C(=O)N(C)CC(=O)N(C)[C@@H](CC(C)C)C(=O)N[C@@H](C(C)C)C(=O)N(C)[C@@H](CC(C)C)C(=O)N[C@@H](C)C(=O)N[C@H](C)C(=O)N(C)[C@@H](CC(C)C)C(=O)N(C)[C@@H](Cc2ccccc2)C(=O)N(C)[C@@H](C(C)C)C(=O)N1C` [MeAla^10 MePhe], the “log10 difference in the concentrations of Cs-derivatives and unmodified Cs required to achieve 50% inhibition in ELISA, McAb H4 1.3” value (H4 1.3) was 0.5 log10, the “log10 difference in the concentrations of Cs-derivatives and unmodified Cs required to achieve 50% inhibition in ELISA, McAb H6 1.5” value (H6 1.5) was 0.2 log10 and the “log10 difference in the concentrations of Cs-derivatives and unmodified Cs required to achieve 50% inhibition in ELISA, McAb G7 1.1” value (G7 1.1) was under 0.0 log10. For the same compound, the “log10 difference in the concentrations of Cs-derivatives and unmodified Cs required to achieve 50% inhibition in ELISA, McAb C4 2.2” value (C4 2.2) was 1.3 log10 and the “log10 difference in the concentrations of Cs-derivatives and unmodified Cs required to achieve 50% inhibition in ELISA, McAb B11 1.4” value (B11 1.4) was 1.6 log10.
In the case of `C/C=C/C[C@@H](C)C[C@H]1C(=O)N[C@@H](CC)C(=O)N(C)CC(=O)N(C)[C@@H](CC(C)C)C(=O)N[C@@H](C(C)C)C(=O)N(C)[C@@H](CC(C)C)C(=O)N[C@@H](C)C(=O)N[C@H](C)C(=O)N(C)[C@@H](CC(C)C)C(=O)N(C)[C@@H](CC(C)C)C(=O)N(C)[C@@H](C(C)C)C(=O)N1C` [MeBint^1 3'desoxy], the “log10 difference in the concentrations of Cs-derivatives and unmodified Cs required to achieve 50% inhibition in ELISA, McAb H4 1.3” value (H4 1.3) was 1.2 log10, the “log10 difference in the concentrations of Cs-derivatives and unmodified Cs required to achieve 50% inhibition in ELISA, McAb H6 1.5” value (H6 1.5) was 0.0 log10 and the “log10 difference in the concentrations of Cs-derivatives and unmodified Cs required to achieve 50% inhibition in ELISA, McAb G7 1.1” value (G7 1.1) was 0.6 log10. The “log10 difference in the concentrations of Cs-derivatives and unmodified Cs required to achieve 50% inhibition in ELISA, McAb C4 2.2” value (C4 2.2) was under 0.0 log10 and the “log10 difference in the concentrations of Cs-derivatives and unmodified Cs required to achieve 50% inhibition in ELISA, McAb B11 1.4” value (B11 1.4) was 0.4 log10.
`C/C=C/C[C@@H](C)[C@@H](O)[C@H]1C(=O)N[C@@H](CCC)C(=O)N(C)CC(=O)N(C)[C@@H](CC(C)C)C(=O)N[C@@H](CCC)C(=O)N(C)[C@@H](CC(C)C)C(=O)N[C@@H](C)C(=O)N[C@H](C)C(=O)N(C)[C@@H](CC(C)C)C(=O)N(C)[C@@H](CC(C)C)C(=O)N(C)[C@@H](C(C)C)C(=O)N1C` [Val^5 NVa^2, Nva^5] was tested, and the “log10 difference in the concentrations of Cs-derivatives and unmodified Cs required to achieve 50% inhibition in ELISA, McAb H4 1.3” value (H4 1.3) was 1.2 log10, the “log10 difference in the concentrations of Cs-derivatives and unmodified Cs required to achieve 50% inhibition in ELISA, McAb H6 1.5” value (H6 1.5) was 0.2 log10 and the “log10 difference in the concentrations of Cs-derivatives and unmodified Cs required to achieve 50% inhibition in ELISA, McAb G7 1.1” value (G7 1.1) was 0.5 log10. The “log10 difference in the concentrations of Cs-derivatives and unmodified Cs required to achieve 50% inhibition in ELISA, McAb C4 2.2” value (C4 2.2) was 0.1 log10 and the “log10 difference in the concentrations of Cs-derivatives and unmodified Cs required to achieve 50% inhibition in ELISA, McAb B11 1.4” value (B11 1.4) was 0.2 log10.
